Here are results for 23 compounds from patent publication US20230348487A1, “2-AMINOPYRIMIDINE COMPOUND AND PHARMACEUTICAL COMPOSITION THEREOF AND APPLICATION THEREOF” (GUANGZHOU SALUSTIER BIOSCIENCES CO., LTD., priority 2021, published 2023).

“And” between values parts separate entries of the source, which are not always exact repeats. Identical values can stand only once. Like-named read-outs stand apart in the source and are kept apart here. Some results are limits rather than exact numbers.

In one test the target is JAK2 (Homo sapiens (Human), UniProt O60674). Briefly: Z′-Lyte kinase inhibitory activity test. It counts as biochemical. Here is the method: (§1) Test method: Firstly, test compounds were prepared into 10 mM stock solution with DMSO, and continuously diluted into 10 concentrations at a 3-fold gradient for later use. 5X reaction buffer was diluted with deionized water into 1×reaction buffer (50 mM HEPES pH 7.5, 0.01% Brij-35, 10 mM MgCl2, 1 mM EGTA), which was used to prepare a mixture of kinase and peptide substrate, as well as a phosphorylated peptide substrate solution. The kinase concentration was determined based on enzyme titration, and the final concentration of peptide substrate and phosphorylated peptide substrate was 2 μM. 5 μL of mixture substrate of kinase and peptide substrate was added to each well on the 384 well plate. Then 5 nL of the test compound (starting with a final concentration of 10 μM) was added with an Echo520 Sampler. […] An additional 100% phosphorylation well (5 μL phosphorylated peptide substrate solution), a 0% phosphorylated well (5 μL of a mixture of kinase and peptide substrate, without test compounds and ATP), and a 0% inhibitory well (5 μL of a mixture of kinase and peptide substrate and appropriate concentration of ATP) were set as control. Two repeats were set for each concentration. The above reaction system was incubated at 30° C. for 1.5 hours. […] 2.5 μL of the diluted mixture was added to each well and the system was incubated at 30° C. for another 1 hour. […] The substrate phosphorylation rate was obtained by calculating the ratio, and the activity of the kinase and the effect of the inhibitor on the kinase was further calculated. Every experiment was repeated at least three times.

In a further test the target is JAK3 (Homo sapiens (Human), UniProt P52333). Nature of the test: Z′-Lyte kinase inhibitory activity test. Particulars: for JAK3 kinase inhibitory activity and selectivity (in words): summary of Table 3, activity maintained at ATP 1 mM. The format is biochemical. Here is the method:
as §1

In the next test the target is JAK1 (Homo sapiens (Human), UniProt P23458). Nature of the test: Z′-Lyte kinase inhibitory activity test. It counts as biochemical. Particulars: ATP concentration Km. The procedure: as §1
For a further test, the target named is TYK2 (Homo sapiens (Human), UniProt P29597). Briefly: Z′-Lyte kinase inhibitory activity test. The format is biochemical. The conditions noted are these: ATP concentration Km. The procedure:
as §1

The test system of test [1] is human acute myeloid leukemia cell line U937. Briefly: CCK-8 in vitro proliferation inhibition. Particulars: read-out: Inhibitory activity (IC50) on cell proliferation, U937. The format is cell-based. Here is the method:
(§2) Cell lines: human chronic myeloid leukemia cell line K562, human acute myeloid leukemia cell line U937, human T lymphocyte leukemia cell line HuT78, and human T lymphoblastic lymphoma cell line Jurkat. Cells were purchased from the Chinese Academy of Sciences Stem Cell Bank or ATCC.
(§3) […] were cultured overnight and suspended cells were directly stimulated with drugs. […] Two repeats were set for each concentration, with a final volume of 200 μL. […] The absorbance values at 450 nm and 650 nm were measured using a microplate reader, and the increment Z (A450-A650) was derived. The inhibitory rate of drugs on cell growth was calculated by GraphPad Prism 8.0.0 through the following formula:
(§4) Inhibition rate (%)(ODcontrol−ODdosing)/ODcontrol×100%
(§5) The half inhibitory concentration (IC50) was calculated. Every experiment was repeated at least three times.

Test [2] deals with human chronic myeloid leukemia cell line K562. Nature of the test: CCK-8 in vitro proliferation inhibition. The format is cell-based. Particulars: read-out: Inhibitory activity (IC50) on cell proliferation, K562. The procedure: as §2, §3, §4, §5

JAK3, sequence (P52333 whole entry): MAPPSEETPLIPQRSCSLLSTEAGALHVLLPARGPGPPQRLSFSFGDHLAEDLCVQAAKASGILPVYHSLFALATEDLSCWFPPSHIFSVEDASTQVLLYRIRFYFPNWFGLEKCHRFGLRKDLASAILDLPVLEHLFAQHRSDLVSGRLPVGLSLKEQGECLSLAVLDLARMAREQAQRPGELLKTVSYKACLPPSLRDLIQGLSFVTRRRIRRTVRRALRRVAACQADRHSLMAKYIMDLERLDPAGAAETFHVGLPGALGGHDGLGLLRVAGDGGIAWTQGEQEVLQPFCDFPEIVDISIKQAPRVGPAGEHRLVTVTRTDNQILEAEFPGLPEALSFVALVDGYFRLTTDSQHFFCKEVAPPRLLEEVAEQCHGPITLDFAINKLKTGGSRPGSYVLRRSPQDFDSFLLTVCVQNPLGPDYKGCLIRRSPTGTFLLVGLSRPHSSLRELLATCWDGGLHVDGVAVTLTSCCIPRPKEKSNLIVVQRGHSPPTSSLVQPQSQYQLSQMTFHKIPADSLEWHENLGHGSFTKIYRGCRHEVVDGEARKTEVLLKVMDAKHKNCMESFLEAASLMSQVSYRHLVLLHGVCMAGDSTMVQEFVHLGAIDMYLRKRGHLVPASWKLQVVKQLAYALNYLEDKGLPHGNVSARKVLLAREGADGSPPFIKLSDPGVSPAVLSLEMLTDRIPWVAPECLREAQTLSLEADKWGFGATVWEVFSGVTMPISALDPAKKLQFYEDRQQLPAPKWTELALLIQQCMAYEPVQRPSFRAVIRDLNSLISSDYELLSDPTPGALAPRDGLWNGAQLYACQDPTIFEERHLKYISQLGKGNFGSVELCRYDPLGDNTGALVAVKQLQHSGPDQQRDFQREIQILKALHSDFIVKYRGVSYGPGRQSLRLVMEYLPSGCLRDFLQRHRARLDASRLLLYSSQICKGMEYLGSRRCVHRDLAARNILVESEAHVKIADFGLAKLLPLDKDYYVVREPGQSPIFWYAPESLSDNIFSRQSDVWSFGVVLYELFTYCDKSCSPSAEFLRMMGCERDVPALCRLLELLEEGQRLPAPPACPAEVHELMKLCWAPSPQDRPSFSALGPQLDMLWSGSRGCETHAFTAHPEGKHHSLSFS
JAK2, sequence (O60674 whole entry): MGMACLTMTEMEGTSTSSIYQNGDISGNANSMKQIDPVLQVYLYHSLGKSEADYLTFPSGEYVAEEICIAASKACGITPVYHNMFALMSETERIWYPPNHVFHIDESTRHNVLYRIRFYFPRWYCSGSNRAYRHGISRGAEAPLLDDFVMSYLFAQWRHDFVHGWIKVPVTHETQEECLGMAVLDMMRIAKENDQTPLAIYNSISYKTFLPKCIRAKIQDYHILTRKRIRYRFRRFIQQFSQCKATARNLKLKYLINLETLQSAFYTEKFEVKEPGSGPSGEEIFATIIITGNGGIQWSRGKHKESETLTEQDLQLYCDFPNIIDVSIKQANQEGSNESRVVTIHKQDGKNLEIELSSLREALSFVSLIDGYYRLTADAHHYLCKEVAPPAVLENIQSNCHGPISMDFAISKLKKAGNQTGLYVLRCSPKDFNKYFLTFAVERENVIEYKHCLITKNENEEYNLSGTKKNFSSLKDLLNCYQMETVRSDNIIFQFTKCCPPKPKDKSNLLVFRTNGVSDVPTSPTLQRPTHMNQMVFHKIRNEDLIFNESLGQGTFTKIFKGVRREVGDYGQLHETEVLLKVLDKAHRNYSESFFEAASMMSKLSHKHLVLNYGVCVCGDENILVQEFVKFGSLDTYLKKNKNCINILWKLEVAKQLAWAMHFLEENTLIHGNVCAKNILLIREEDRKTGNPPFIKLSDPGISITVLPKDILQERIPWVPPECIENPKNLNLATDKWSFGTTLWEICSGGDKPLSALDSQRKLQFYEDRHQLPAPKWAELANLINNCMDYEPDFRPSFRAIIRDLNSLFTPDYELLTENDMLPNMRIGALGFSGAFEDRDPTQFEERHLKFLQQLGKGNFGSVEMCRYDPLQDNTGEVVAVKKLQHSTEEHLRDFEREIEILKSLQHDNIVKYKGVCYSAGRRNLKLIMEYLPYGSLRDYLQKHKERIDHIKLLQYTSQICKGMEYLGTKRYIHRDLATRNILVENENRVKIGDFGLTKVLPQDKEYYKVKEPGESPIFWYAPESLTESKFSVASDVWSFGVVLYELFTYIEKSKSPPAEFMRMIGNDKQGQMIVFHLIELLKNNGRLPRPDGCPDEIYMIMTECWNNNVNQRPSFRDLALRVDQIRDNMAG
JAK1, sequence (P23458 whole entry): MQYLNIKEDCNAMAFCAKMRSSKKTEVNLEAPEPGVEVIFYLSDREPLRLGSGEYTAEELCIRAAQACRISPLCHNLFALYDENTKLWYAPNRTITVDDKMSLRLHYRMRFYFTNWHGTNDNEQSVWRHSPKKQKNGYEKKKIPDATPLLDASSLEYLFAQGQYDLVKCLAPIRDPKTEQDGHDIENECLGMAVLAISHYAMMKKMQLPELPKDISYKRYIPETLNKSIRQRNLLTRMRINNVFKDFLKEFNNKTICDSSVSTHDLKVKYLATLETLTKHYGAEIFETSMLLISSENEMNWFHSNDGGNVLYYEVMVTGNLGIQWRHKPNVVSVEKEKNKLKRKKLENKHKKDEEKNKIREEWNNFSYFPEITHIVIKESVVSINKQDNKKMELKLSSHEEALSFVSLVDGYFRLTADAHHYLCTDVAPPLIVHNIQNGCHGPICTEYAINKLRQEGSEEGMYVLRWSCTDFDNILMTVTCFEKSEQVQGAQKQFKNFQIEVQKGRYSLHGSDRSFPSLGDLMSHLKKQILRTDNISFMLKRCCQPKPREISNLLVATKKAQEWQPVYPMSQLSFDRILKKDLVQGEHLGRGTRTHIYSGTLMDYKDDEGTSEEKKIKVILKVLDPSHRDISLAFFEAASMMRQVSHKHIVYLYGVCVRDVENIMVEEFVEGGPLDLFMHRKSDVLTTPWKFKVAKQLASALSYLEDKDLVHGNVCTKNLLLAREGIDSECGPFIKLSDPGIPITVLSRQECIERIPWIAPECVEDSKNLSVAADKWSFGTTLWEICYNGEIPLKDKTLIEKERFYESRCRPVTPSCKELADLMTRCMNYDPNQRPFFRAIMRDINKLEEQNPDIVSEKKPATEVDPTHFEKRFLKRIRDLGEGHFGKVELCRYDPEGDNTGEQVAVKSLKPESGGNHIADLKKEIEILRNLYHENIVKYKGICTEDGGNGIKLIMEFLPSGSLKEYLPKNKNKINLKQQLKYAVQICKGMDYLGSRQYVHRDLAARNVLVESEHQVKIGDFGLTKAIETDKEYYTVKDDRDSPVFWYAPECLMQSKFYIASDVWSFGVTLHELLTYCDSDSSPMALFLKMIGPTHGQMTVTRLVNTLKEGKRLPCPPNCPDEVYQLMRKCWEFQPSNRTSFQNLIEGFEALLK
TYK2, sequence (P29597 whole entry): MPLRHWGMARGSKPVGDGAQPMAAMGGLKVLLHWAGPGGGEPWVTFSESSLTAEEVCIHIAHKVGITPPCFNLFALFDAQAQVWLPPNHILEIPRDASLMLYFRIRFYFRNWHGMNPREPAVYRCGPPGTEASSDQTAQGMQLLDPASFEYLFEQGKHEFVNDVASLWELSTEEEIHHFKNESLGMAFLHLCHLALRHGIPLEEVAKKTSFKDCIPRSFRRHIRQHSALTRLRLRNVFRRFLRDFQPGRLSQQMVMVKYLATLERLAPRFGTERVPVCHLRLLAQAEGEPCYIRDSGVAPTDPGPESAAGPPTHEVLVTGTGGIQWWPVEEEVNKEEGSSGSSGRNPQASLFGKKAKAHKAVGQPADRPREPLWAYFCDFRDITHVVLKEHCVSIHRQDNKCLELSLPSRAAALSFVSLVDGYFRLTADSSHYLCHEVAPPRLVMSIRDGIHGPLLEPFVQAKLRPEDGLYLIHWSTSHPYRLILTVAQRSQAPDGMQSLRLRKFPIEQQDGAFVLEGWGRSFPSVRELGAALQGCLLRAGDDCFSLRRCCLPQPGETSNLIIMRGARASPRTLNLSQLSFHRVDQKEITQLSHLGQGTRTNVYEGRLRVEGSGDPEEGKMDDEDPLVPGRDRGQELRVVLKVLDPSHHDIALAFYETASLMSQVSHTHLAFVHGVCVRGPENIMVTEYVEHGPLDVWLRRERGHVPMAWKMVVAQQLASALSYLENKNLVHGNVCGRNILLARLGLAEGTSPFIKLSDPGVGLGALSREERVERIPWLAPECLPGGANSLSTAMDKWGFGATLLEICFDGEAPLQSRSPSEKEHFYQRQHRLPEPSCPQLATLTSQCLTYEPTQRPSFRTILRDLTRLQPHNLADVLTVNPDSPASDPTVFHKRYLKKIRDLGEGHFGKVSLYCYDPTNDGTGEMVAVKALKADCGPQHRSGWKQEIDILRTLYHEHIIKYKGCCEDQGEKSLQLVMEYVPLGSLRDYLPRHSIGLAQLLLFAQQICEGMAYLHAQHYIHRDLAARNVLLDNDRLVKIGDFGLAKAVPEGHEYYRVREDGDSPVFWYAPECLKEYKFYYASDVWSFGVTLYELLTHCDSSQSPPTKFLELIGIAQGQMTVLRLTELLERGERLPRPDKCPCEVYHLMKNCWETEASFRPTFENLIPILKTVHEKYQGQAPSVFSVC

As for `CN1CCN(C2CCN(c3ccc(Nc4ncc(Cl)c(O[C@H]5CO[C@H]6[C@@H]5OC[C@H]6O)n4)cc3Cl)CC2)CC1` [LS 3-96], the IC50 at JAK2 (ATP concentration Km) was 8.16 µM.

In turn, `CN1CCN(C2CCN(c3ccc(Nc4ncc(Cl)c(O[C@@H]5CO[C@H]6[C@@H]5OC[C@@H]6O)n4)cc3Cl)CC2)CC1` [LS 4-97] showed an IC50 on JAK2 (ATP concentration Km) of 0.406 µM.

For `COc1cc(N2CCC(N3CCN(C)CC3)CC2)ccc1Nc1ncc(Cl)c(O[C@H]2CO[C@H]3[C@@H]2OC[C@H]3O)n1` [LS 4-100], at JAK3 (ATP concentration Km, in μM), the IC50 was over 10 µM.

In the case of `COc1cc(Nc2ncc(Cl)c(O[C@H]3CO[C@H]4[C@@H]3OC[C@H]4O)n2)ccc1N1CCN(C)CC1` [LS 4-106], the IC50 at JAK3 (ATP concentration Km) is 0.638 µM.

At JAK3 (ATP concentration Km), `CN1CCN(c2ccc(Nc3ncc(Cl)c(O[C@@H]4CO[C@H]5[C@@H]4OC[C@H]5O)n3)cc2Cl)CC1` [LS 4-142] yielded an IC50 of 0.0495 µM.

Regarding `CN1CCN(c2ccc(Nc3ncc(Cl)c(O[C@@H]4CO[C@H]5[C@@H]4OC[C@H]5O)n3)cc2)CC1` [LS 4-144], the IC50 on JAK3 (ATP concentration Km) turned out to be 0.0848 µM.

Turning to `CN1CCN(C2CCN(c3ccc(Nc4ncc(Cl)c(O[C@@H]5CO[C@H]6[C@@H]5OC[C@H]6O)n4)c(Cl)c3)CC2)CC1` [LS 4-148], the IC50 at JAK3 (ATP concentration Km) turned out to be 6.47 µM.

On JAK3 (ATP concentration Km), `Cc1cc(Nc2ncc(Cl)c(O[C@@H]3CO[C@H]4[C@@H]3OC[C@H]4O)n2)cnc1N1CCC(N2CCN(C)CC2)CC1` [LS 4-150] returned an IC50 of 0.084 µM.

Consider `CN1CCN(C2CCN(c3c(Cl)cc(Nc4ncc(Cl)c(O[C@@H]5CO[C@H]6[C@@H]5OC[C@H]6O)n4)cc3Cl)CC2)CC1` [LS 5-16], for which the IC50 turned out to be 0.354 µM against JAK1, 0.949 µM against JAK2 (ATP concentration Km) and 0.141 µM against JAK3 (ATP concentration Km).

Consider `CCN1CCN(Cc2ccc(Nc3ncc(Cl)c(O[C@@H]4CO[C@H]5[C@@H]4OC[C@H]5O)n3)nc2)CC1` [LS 5-54], for which the IC50 against JAK1 (in μM) was over 10 µM; at JAK2 (ATP concentration Km, in μM), over 10 µM; against JAK3 (ATP concentration Km), 5.75 µM.

As to `N#CC1(c2ccc(Nc3ncc(Cl)c(O[C@@H]4CO[C@H]5[C@@H]4OC[C@H]5O)n3)cc2)CCCC1` [LS 5-58], the IC50 at JAK1 was 0.161 µM; at JAK2 (ATP concentration Km), 0.67 µM; against JAK3 (ATP concentration Km), 0.12 µM.

As to `C=CC(=O)Nc1cc(Nc2ncc(C)c(O[C@@H]3CO[C@H]4[C@@H]3OC[C@H]4O)n2)ccc1N1CCC(N2CCN(C)CC2)CC1` [LS 5-133, N-(5-((4-(((3R,3aR,6R, 6aR)-6-hydroxyhexahydrofurano[3,2-b]furan-3-yl)oxygen)-5-methylpyrimidin-2-yl)amino)-2-(4-(4-methylpiperazin-1-yl)piperidin-1-yl)phenyl) acrylamide], the IC50 turned out to be 0.685 µM at JAK1, 0.417 µM on JAK2 (ATP concentration Km), 0.00634 µM at JAK3 (ATP concentration Km) and 313 nM against TYK2.

Regarding `C=CC(=O)Nc1cc(Nc2ncc(Cl)c(O[C@@H]3CO[C@H]4[C@@H]3OC[C@H]4OC)n2)ccc1N1CCOCC1` [LS 6-48], the IC50 at JAK1 is 2.75 µM; against JAK2 (ATP concentration Km) it was 1.13 µM; on JAK3 (ATP concentration 1 mM), 0.0261 µM; on JAK3 (ATP concentration Km), 0.00387 µM; against TYK2, 637 nM; in test [1] (Homo sapiens, U-937, 72 hours), 403 nM. Further, the IC50 in test [2] (Homo sapiens, K562, 72 hours) was determined as 1550 nM.

`C=CC(=O)Nc1cc(Nc2ncc(Cl)c(O[C@@H]3CO[C@H]4[C@@H]3OC[C@H]4OC)n2)ccc1N1CCN(C)[C@@H](C)C1` [LS 6-49]: the IC50 came to 4.69 µM against JAK1; 1.1 µM against JAK2 (ATP concentration Km); 0.00292 µM at JAK3 (ATP concentration 1 mM); 0.0017 µM against JAK3 (ATP concentration Km); 1190 nM against TYK2; 79.4 nM in test [1] (Homo sapiens, U-937, 72 hours). In test [2] (Homo sapiens, K562, 72 hours), the IC50 stood at 371 nM. Besides, the “JAK3 kinase inhibitory activity and selectivity (in words)” value at JAK3 was “strong and selective JAK3 kinase inhibitory activity”.

Turning to `C=CC(=O)Nc1cc(Nc2ncc(Cl)c(O[C@@H]3CO[C@H]4[C@@H]3OC[C@@H]4F)n2)ccc1N1CCC(N2CCN(C)CC2)CC1` [LS 6-59], the IC50 turned out to be 7.04 µM on JAK1; 1.08 µM against JAK2; 435 nM on TYK2; 129 nM in test [1] (72 hours); 281 nM in test [2] (72 hours).

For the compound `C=CC(=O)Nc1cc(Nc2ncc(Cl)c(O[C@@H]3CO[C@H]4[C@@H]3OC[C@@H]4F)n2)ccc1N(C)CCN(C)C` [LS 6-77], the IC50 at JAK1 was found to be 33.9 µM; against JAK2 (ATP concentration Km) it was 2.47 µM; on JAK3 (ATP concentration 1 mM), 0.00155 µM; on JAK3 (ATP concentration Km), 0.00128 µM; at TYK2 it was 921 nM; in test [1] (Homo sapiens, U-937, 72 hours) it was 40.7 nM. Moreover, the IC50 in test [2] (Homo sapiens, K562, 72 hours) is 906 nM. For the same compound, the “JAK3 kinase inhibitory activity and selectivity (in words)” value on JAK3 was “strong and selective JAK3 kinase inhibitory activity”.

`C=CC(=O)Nc1cc(Nc2ncc(Cl)c(O[C@@H]3CO[C@H]4[C@@H]3OC[C@@H]4F)n2)ccc1N1CCN(CC)CC1` [LS 6-78]: the IC50 at JAK1 came out at 12.6 µM; against JAK2 (ATP concentration Km) it was 1.67 µM; against JAK3 (ATP concentration 1 mM), 0.00714 µM; at JAK3 (ATP concentration Km), 0.00402 µM; against TYK2, 912 nM; in test [1] (Homo sapiens, U-937, 72 hours), 146 nM. The IC50 in test [2] (Homo sapiens, K562, 72 hours) was found to be 525 nM.

In the case of `C=CC(=O)Nc1cc(Nc2ncc(Cl)c(O[C@@H]3CO[C@H]4[C@@H]3OC[C@H]4F)n2)ccc1N(C)CCN(C)C` [LS 6-88], the IC50 is 87.1 µM on JAK1; 1.72 µM at JAK2; 0.00135 µM and 0.00153 µM at JAK3; 930 nM at TYK2; 50.3 nM in test [1] (72 hours); 410 nM in test [2] (72 hours). The “JAK3 kinase inhibitory activity and selectivity (in words)” value at JAK3 was “strong and selective JAK3 kinase inhibitory activity”.

For the compound `C=CC(=O)Nc1cc(Nc2ncc(Cl)c(O[C@@H]3CO[C@H]4[C@@H]3OC[C@H]4F)n2)ccc1N1CCN(CC)CC1` [LS 6-89], the IC50 against JAK1 was determined as 15.6 µM; at JAK2 (ATP concentration Km), 1.71 µM; at JAK3 (ATP concentration 1 mM), 0.00654 µM; against JAK3 (ATP concentration Km) it was 0.00426 µM; against TYK2 it was 805 nM; in test [1] (Homo sapiens, U-937, 72 hours), 171 nM. The IC50 in test [2] (Homo sapiens, K562, 72 hours) is 620 nM.

Take `C=CC(=O)Nc1cc(Nc2ncc(Cl)c(O[C@@H]3CO[C@H]4[C@@H]3OCC4(F)F)n2)ccc1N(C)CCN(C)C` [LS 6-105]: the IC50 at JAK1 was 4.22 µM; on JAK2, 0.589 µM; against JAK3 it was 0.00113 µM and 0.00132 µM; on TYK2, 272 nM; in test [1] (72 hours), 33.8 nM; in test [2] (72 hours), 345 nM. Further, on JAK3, the “JAK3 kinase inhibitory activity and selectivity (in words)” value is “strong and selective JAK3 kinase inhibitory activity”.

As for `C=CC(=O)Nc1cc(Nc2ncc(Cl)c(O[C@@H]3CO[C@@H]4CCO[C@@H]43)n2)ccc1N(C)CCN(C)C` [LS 6-121], the IC50 on JAK1 is 2.93 µM; at JAK2, 1.06 µM; at JAK3, 0.0014 µM and 0.0016 µM; at TYK2, 278 nM; in test [1] (72 hours), 31.3 nM. For the same compound, the “JAK3 kinase inhibitory activity and selectivity (in words)” value at JAK3 was “strong and selective JAK3 kinase inhibitory activity”.

In the case of `C=CC(=O)Nc1cc(Nc2ncc(Cl)c(O[C@@H]3CO[C@H]4[C@@H]3OC[C@H]4OCC)n2)ccc1N(C)CCN(C)C` [LS 7-13], the IC50 on JAK1 is 8.6 µM; on JAK2 (ATP concentration Km), 1.89 µM; at JAK3 (ATP concentration 1 mM) it was 0.0019 µM; against JAK3 (ATP concentration Km) it was 0.0013 µM; against TYK2, 1660 nM; in test [1] (Homo sapiens, U-937, 72 hours), 29.9 nM. Moreover, the “JAK3 kinase inhibitory activity and selectivity (in words)” value at JAK3 was “strong and selective JAK3 kinase inhibitory activity”.

On to `C=CC(=O)Nc1cc(Nc2ncc(Cl)c(O[C@@H]3CO[C@H]4[C@@H]3OC[C@H]4OC(C)C)n2)ccc1N(C)CCN(C)C` [LS 7-18], for which the IC50 at JAK1 (in μM) was over 10 µM; at JAK2 (ATP concentration Km), 2.66 µM; at JAK3 (ATP concentration 1 mM) it was 0.0023 µM; against JAK3 (ATP concentration Km), 0.0015 µM; against TYK2, 4420 nM; in test [1] (Homo sapiens, U-937, 72 hours) it was 44 nM. Moreover, the “JAK3 kinase inhibitory activity and selectivity (in words)” value on JAK3 was “strong and selective JAK3 kinase inhibitory activity”.
